# What was measured:
# HCT116 +/+ = assay: Western blot of AREG protein in HCT116 lysates after chemotherapy; format: cell-based, human; conditions: HCT116 p53 wild type lysates; 48 hour treatment
# Protocol: FIG. 2 illustrates western blot analysis of AREG and gamma tubulin protein expression in HCT116 +/+ and RKO +/+ with/without a 48 hour CPT11 or 5-Fu treatment; HCT 116, RKO, HT 29 and H630 are human colorectal carcinoma cell lines. After different time exposure to chemotherapy the cells were harvested, and washed in 1×PBS. The cell pellet was then lysed in a suitable amount of 1×RIPA lysis buffer (150 mM NaCl, 10 mM Tris at pH 7.2, 0.1% SDS, 1.0% triton X-100 and 5 mM.EDTA) supplemented with protease inhibitors. The cell lysate was briefly vortexed, incubated on ice for 10 min and then centrifuged at 12,000 rpm to remove cell debris. Following centrifugation, the lysate supernatant was removed to a fresh eppendorf tube. Protein concentrations were assayed using the BCA Protein Assay (Pierce) according to the manufacturer's instructions. The absorbance of each sample at 620 nm was assayed using a microplate reader. A standard BSA curve was plotted for each experiment and the protein concentration of each sample calculated. To each sample an equal volume of 5× Western sample buffer and 10% of the final volume of β-mercaptoethanol (Sigma) was added. The samples were denatured at 95° C. for 5 minutes and placed on ice prior to loading onto SDS polyacrylamide gel (SDS PAGE). […] Protein bands were detected by exposure to autoradiograph which was subsequently developed. […]
# [1] = system: HT29 colorectal cancer cells; assay: RT-PCR of AREG mRNA in HT29 cells after chemotherapy; format: cell-based, human; conditions: IC50 dose, 48 hours
# Protocol: FIG. 6 illustrates AREG upregulation following chemotherapeutic challenge in A) HT29, B) HCT116 and C) MDA-MB231 cells. Cells were treated with/without chemotherapy for 48 hours. RT-PCR was performed with 1 μg of total RNA using primer pairs specific for the human AREG gene or GAPDH. The PCR products were separated on 1.5% agarose gel electrophoresis and visualized by ethidium bromide staining.
# For Example 2, Total RNA was isolated from cells following the RNA STAT-60 manufacturer's protocol (Biogenesis, Poole, U.K.). RT-PCR was performed with 1 μg of total cell RNA using a Promega ImProm-II™ Reverse Transcription System (Promega, Southhampton, UK). PCR was performed using primer pairs specific for human AREG (Forward 5′-[…]-3′(SEQ ID No:19), Reverse 5′-[…]-3′ (SEQ ID No:20)), human HB-EGF (Forward 5′-[…]-3′(SEQ ID No:21), Reverse 5′-[…]-3′(SEQ ID No:22)), human GAPDH as a control (Forward 5′[…]-3′(SEQ ID No:23), Reverse 5′ […]-3′(SEQ ID NO:24)) and human Beta-actin as a control (Forward 5′-[…]-3′(SEQ ID No:25), Reverse 5′-[…]-3′(SEQ ID No:26)).
# The PCR products were separated on 1.5% agarose gel and visualized by ethidium bromide staining.
smiles,measurement,setting,value
"CCc1c2c(nc3ccc(OC(=O)N4CCC(N5CCCCC5)CC4)cc13)-c1cc3c(c(=O)n1C2)COC(=O)[C@]3(O)CC [CPT-11, irinotecan]",AREG protein expression (western blot),HCT116 +/+,Enhanced AREG expression
same,AREG mRNA expression (RT-PCR),[1],up-regulation

# From patent publication US20100111965A1, “COMBINATION THERAPY” (FUSION ANTIBODIES LIMITED, priority 2006, published 2010)
